According to the pKa sets of Baltruschat and Czodrowski (2020):

Structure (SMILES)	pKa (acidic group)	pKa (basic group)
[NH3+]C1(C(=O)O)CCCCC1	2.66	
N=C(SCc1ccccc1)c1ccccc1		4.43
O=S(=O)([O-])c1ccc(O)cc1	8.91	
O=C1NCCN1		3.09
O=Cc1cc(Br)cc([N+](=O)[O-])c1O	4.46	
Sc1ccc(Br)cc1	5.8	
CCCN(CCC)CC(=O)NC1c2ccccc2-c2ccccc21		7.28
O=C(O)C1CCCOC1 (configuration not stated)	4.25	
Cc1cccc2[nH]cnc12		5.67
CCOCCN(C)c1ccccc1		4.8
[O-]c1ncc2[nH]cnc2n1	11.9	8.43
CCC(Oc1ccccc1C)C(=O)O (configuration not stated)	3.43	
O=C(NOC(=O)c1ccccc1)c1ccccc1	6	
Brc1cccnc1		2.94
c1ncc2[nH]nnc2n1	4.88	
O=S(O)c1ccccc1	1.72	
CC/C(C)=C/C(=O)O	5.14	
c1cc(N2CCOCC2)ccc1N1CCOCC1		4.2
NCCC(=O)NCCc1c[nH]cn1		9.21
C#CCN(C)C		7.05
CCC(CC)C(=O)O[C@H]1O[C@@H](C(=O)O)[C@H](O)[C@@H](O)[C@@H]1O	3.37	
CCCCCCC(=O)NO	9.62	
c1ccc(C(OCCN2CCCCC2)c2ccccc2)cc1		8.03
CCOc1ccccc1/C=C/C(=O)O	4.68	
Cc1cn2nc(-c3ccccc3)ccc2n1		5.09

Structure (SMILES)	pKa (acidic group)	pKa (basic group)
O=C([O-])CNC(=O)CNS(=O)(=O)c1ccccc1	9.65	
O=C1C[C@@H](C(=O)O)[C@@H](C(=O)[O-])O1	4.5	
CC(C)N(Cc1ccccc1O)C(C)C	11.4	7.55
CC1(C)CCC(C(=O)O)=[N+]1[O-]	2.8	
CCOc1ccc(C(=O)O)cc1	4.64	
O=C(O)[C@@H]1CC[C@H](C(=O)[O-])[Se]1	4.55	
Cc1ccc(NCC[NH2+]c2ccc(C)cc2)cc1		2.7
O=C(O)c1cnoc1	3.39	
COc1ccccc1/C=N/O	10.9	
C=C(C)C(=O)OCCCN		9.62
CCC(=O)OC(C)CN(C)C (configuration not stated)		8.26
COc1cccc(C(=O)O)c1	4.06	
Cc1cccc(-n2nnnc2N)c1		1.08
NC(=O)CCc1ccccn1		5.09
C[n+]1cnc2nc([O-])cnc2c1[O-]		6.19
CC(C)C1CC(CC(=O)O)[NH2+]C1C(=O)[O-] (configuration not stated)	4	
CCCNC(O)=S	0.52	
O=C(O)[C@@H]1C[C@@H]1Cl	4.12	
c1c[nH+]c(Cc2nc(Cc3c[nH]c[nH+]3)c[nH]2)[nH]1		3.94
CC1/C(=N\O)C[C@@H]2N=C(c3ccccc3)O[C@@]13[C@@H]1OC(=O)[C@H](C)[C@H]1CC[C@]23C (some centres not stated)		4.65
N#CC(CCCC(=O)O)c1ccccc1 (configuration not stated)	4.64	
Nc1cccc2cn[nH]c12		3.05
[NH3+]Cc1ccncc1		4.05
O=C([O-])C(CO)NCc1cc(Cl)ccc1[O-] (configuration not stated)		10.2
CC1CC(=O)N(O)C1(C)C (configuration not stated)	8.85	

Structure (SMILES)	pKa (acidic group)	pKa (basic group)
CC(C)(C(N)=O)S(=O)(=O)NC(N)=O	5.15	
C[NH+](C)CCCNc1c([N+](=O)[O-])cnc2ccccc12		4.43
CCCCCCCCCCN(CCO)CC(O)CC (configuration not stated)		7.2
CSC(=N)c1ccccc1		5.84
NC(=O)/C=C(\O)c1ccccn1		8.23
CCCCN1CCCCC1C(=O)Nc1c(C)cccc1C (configuration not stated)		7.27
[NH3+]CCC[SeH]	6.27	
C[Si](C)(C)CCCN		10.8
COc1cccc(/C=N/O)c1	10.6	
Cc1ccc(Nc2ccccc2)cc1		1.16
Oc1ccc2nnccc2c1	7.52	3.65
Cc1n[nH]c(C)c1Cl		2.23
CCN(CC)CCCNc1ccnc2ccccc12		10
O=C(O)C1CC[NH2+]C1 (configuration not stated)	3.38	
N/C(CC/C(N)=N/O)=N\O		5.97
Cc1ccc(S(=O)C(C)(C)C)cc1 (configuration not stated)		-2.2
CC(=O)C(CN1CCOCC1)c1ccccc1 (configuration not stated)		6.23
C[n+]1ccccc1-c1ccccn1		0.31
NS(=O)(=O)c1ccc(P(=O)([O-])O)cc1	6.38	
COC(=O)[n+]1ccc(C)cc1	6.15	
N#Cc1cccc(O)c1	8.63	
Nc1ccc(S(=O)(=O)Nc2ccn(-c3cccc([N+](=O)[O-])c3)n2)cc1	7.03	
CC(=O)Nc1cccnc1		4.44
NS(=O)(=O)c1cccc(C(F)(F)F)c1	8.98	
Cn1cc([O-])nc1N		13.4

Structure (SMILES)	pKa (acidic group)	pKa (basic group)
C1CCN(CCN2CCCCC2)CC1		9.43
COc1ccc2c(c1)C(O)N(C)C=C2 (configuration not stated)		2.15
Cc1ccc(C[n+]2ccc(C(=O)Cc3ccccc3)cc2)cc1	8.91	
COC(=O)CC(=N/[O-])/C(C)=N/O	11.6	
c1ccc(-c2cn[nH]c2)cc1	13.6	
CN(C)CCN(C)CC[NH+](C)C		8.63
CN(C)CCCC(=O)Oc1cccc([N+](=O)[O-])c1		9.82
Oc1cncc[nH+]1	-0.1	
Cn1c(=S)[nH]c2cc3c(cc21)CCCC3	10.8	
[NH3+]CCCc1ccccn1		4.98
[O-]c1ccccc1CN1CCCCC1		11
CC(C)(C)CCCCc1ccc(O)cc1	11.2	
Oc1ccc2c(c1)ncc1ccccc12	8.79	4.82
O=[N+]([O-])c1n[nH]c(Oc2ccccc2)n1	4.2	
Nc1ccc2ccc([N+](=O)[O-])cc2c1		3.13
C/C(=N\c1ccccc1)Nc1ccccc1		8.3
CC[C@H](C)[C@H]([NH3+])C(=O)O	2.31	
CC#C[C@H](C)Oc1cc(N)c(Cl)cc1C(=O)N[C@@H]1C[C@H]2CC[C@@H](C1)N2C		9.95
CC(C)(C)C(=O)n1cnc2ccccc21		2
Cc1ccc2nc3c(c(N4CCOCC4)c2c1)CCC3		7.18
C=C[C@]1(O)CN2CC[C@H]1C[C@@H]2[C@@H](O)c1ccnc2ccc(OC)cc12		7.24
C[N+](C)(C)c1ccc(O)cc1	8.25	
O=C(O)c1csc(Cl)n1	3.3	
CCOc1ccc2c3c1O[C@H]1[C@@H](O)C=C[C@H]4[C@@H](C2)N(C)CC[C@@]341		8.03
Cn1c[nH+]c(C(=O)O)c1C(=O)O	-0.88	

Structure (SMILES)	pKa (acidic group)	pKa (basic group)
CN(C)CCC(=O)[O-]		9.85
Nc1cccnc1C(=O)[O-]		7.18
CN(CCC#N)CCC#N		4.24
CCCc1ccccc1N		4.36
Cc1nc2ncncc2[nH]1	9.37	2.85
CC(=O)N1CCNc2ncnc(C)c21		5.26
CCCCS(=O)O	2.2	
Cc1cc(C#N)cc(C)c1O	8.27	
Cc1ccc2ccc3ccc(C)nc3c2n1		6.15
CCCNC(=O)[C@H](Cc1c[nH]c[nH+]1)NC(=O)c1cccc(CNCC[NH3+])n1		5.9
NCCCCCc1cccnc1		10.3
[NH3+]CCc1nnn[nH]1	3.99	
CCN(CC)CCC(=O)Nc1c(C)cccc1C		8.96
CCOC(=O)C1(c2ccccc2)CCN(CC)CC1		9.03
CCCCOC(=N)c1ccccc1		6.09
CN[C@H]1C(C)[C@@H]1[NH2+]C (some centres not stated)		5.68
CCNCC(=O)c1ccc(O)cc1		7.77
c1ccc([C@@H]2CN3CCC[C@@H]3c3ccccc32)cc1		9.12
OCCCNc1ccccc1		4.53
C=CC(CC(C)(C)C)c1ccc2cccnc2c1O (configuration not stated)	9.8	4.94
Oc1c(Cl)ccc(Cl)c1Cl	6.12	
CNc1ncccn1		3.82
Nc1nnnn1-c1ccccc1		1.12
CC(C)(C)/C(N)=N/O		5.8
Fc1cccc2[nH]cnc12		4.4

Structure (SMILES)	pKa (acidic group)	pKa (basic group)
[NH3+]CCNC(=S)S	2	
C=CCC(C)(CN(CC)CC)OC(=O)CCC (configuration not stated)		8.5
CCCC(=O)OCCN(C)C		8.31
CC(C)CN(CCS)CC(C)C		8.23
Cc1cc(C)nc([S-])n1		8.5
COc1cc(C)ccc1C(=O)O	4.38	
NC(=O)[C@@H]1CCCN1	8.82	
COCCc1nc(C)c[nH]1		8.13
O=C(O)C[NH+](CC(=O)O)Cc1ccccc1O	2.2	
CC1CCCCN1C (configuration not stated)		10.3
CCOC(=O)C(=NO)C(=O)OCC	5.48	
Cc1cnc(C(=O)O)s1	3.03	
OCC1=CCN2CC[C@@H](O)[C@@H]12		8.92
CC(CC(O)(c1ccccc1)c1ccccc1)N1CCCCC1 (configuration not stated)		8.62
CC1(C)[C@@H]2CC[C@]1(C)C(=O)C2C(=O)O (some centres not stated)	3.76	
O=C(S)c1ccccc1	2.44	
N#Cc1cccc(N)c1		2.83
N#CC1CN2CCC1CC2 (configuration not stated)		7.85
Cn1c[nH+]c2cccc(N)c21		2.36
CN(C)c1ccc(/N=N/c2ccccn2)cc1		4.5
CC/C=C/C(=O)O	4.69	
Nc1c2ccccc2[nH+]c2cc(O)ccc12	6.63	
NC1CC1		9.1
C[NH+]1C[C@@H](C(=O)O)C=C2c3cccc4[nH]cc(c34)C[C@@H]21	3.28	
CC(C)=C=CC(C)(C)C(=O)O	4.7	

Structure (SMILES)	pKa (acidic group)	pKa (basic group)
[NH3+][C@H]1CCCC[C@@H]1C(=O)O	3.59	
CNc1nnn[nH]1	6.06	
C/C=C/C#CC(=O)O	2.67	
C[NH2+]CCN		7.49
Nc1cc([N+](=O)[O-])cc2ccccc12		2.24
Sc1nc2cc3ccccc3cc2[nH]1	9.84	
C(=C\c1ccncc1)/c1ccncc1		5.82
C[Si](C)(CCl)CCCC(=O)O	4.97	
O=[N+]([O-])c1ccc(S(=O)(=O)O)cc1	-7.15	
[NH3+]CCCCc1ccccn1		5.56
C[n+]1c2ccccc2nc2ccc(O)cc21	3	
C[C@H]1CC[C@H](C)C1C(=O)O	4.74	
O=Cc1ccccc1O	8.36	
O=C(O)c1csc(Cl)c1	3.8	
Cc1cc(/N=N/c2ccc(S(N)(=O)=O)cc2)cc(C(=O)O)c1O	2.25	
O=C([O-])CNC(=O)c1cccc(O)c1O	7.7	
O=C1CC(=O)CS(=O)(=O)C1	2.72	
Cc1cnc2c(ccc3cccnc32)c1C		5.62
C1CNCCSCCNC1		12
Cc1ccc(C2CCCN2)cc1 (configuration not stated)		9.99
c1ccc(-c2nc3ccccc3s2)cc1		0.7
